These results are taken from US20260207626A1, “SYNTHETIC TRITERPENOIDS AND COMPOSITIONS THEREOF IN WEIGHT MANAGEMENT, SKELETAL MUSCLE FUNCTION, AND APPETITE SUPPRESSION” (The Board of Regents of the University of Texas System, priority 2022, published 2026).

Assay [1] can be described thus: Energy expenditure (Promethion Metabolic Analyzer) in mice fed HFD with or without CDDO-EA, LFD or HFD pair-fed. Format: in vivo, C57BL/6J mice. The note with it: HFD + CDDO-EA (0.04%), days 3-9. How it is done:
FIG. 22A and FIG. 22B. […] FIG. 22A. EE was measured 289 times in a 24-hour cycle at each day from 3-9 days of the experimental feeding. FIG. 22B. Average EE for days 3-9 of experimental feeding. C57BL/6J mice were fed a HFD with or without incorporation of CDDO-EA (diet containing 0.04% CDDO-EA) or LFD or HFD pair-fed for 6 weeks (n=5).
C57BL/6J mice (6-8 weeks old, male, strain #000664, The Jackson Laboratory) were divided into four (4) groups (i)-(iv)): (i) ad libitum Low fat caloric content (LFD-10% of total calories from fat caloric content, #TD.08806, Envigo), (ii) ad libitum HFD (60% of total calories from fat caloric content, #TD.06414, Envigo), (iii) HFD+CDDO-EA (diet containing 0.04% CDDO-EA), and (iv) HFD pair-fed to food intake of mice fed HFD+CDDO-EA. The study was for 6 weeks (42 days) (performed at Vanderbilt Metabolic Mouse Phenotyping Center (VMMPC)). Mice were singly housed in a Promethion Metabolic Analyzer and were monitored continuously for 7 days to assess feeding and EE.

A further assay concerns NF-κB p65 (Ser536). As to the kind of experiment: Western blot of LPS-induced NF-κB phosphorylation in L6-GLUT4myc myotubes. In kind it is cell-based, rat. Conditions: 500 nM CDDO-EA 1 hr then 100 ng/ml LPS 1 hr. From the text:
To examine the anti-inflammatory properties of CDDO-EA in skeletal muscle cells, CDDO-EA was examined for its effect on nuclear factor-kappa B (NF-κB) activity in L6-GLUT4myc muscle cells, in the context of LPS-mediated inflammatory responses in L6-GLUT4myc muscle cells. All experiments were independently repeated one to four times and done in duplicate or triplicate, and data were statistically analyzed by One-Way ANOVA or unpaired t-test, two tailed.
Cells were studied with vehicle alone [0.125% dimethyl sulfoxide (DMSO)] and LPS with and without CDDO-EA. […]
Western blotting and subcellular fractionation: L6-GLUT4myc myoblasts (4×10^4 cells/ml, 2 ml/well) were seeded onto 6-well dishes and differentiated with differentiation medium for 7 days. […] Protein concentrations were determined using the Pierce BCA Protein Assay (Thermo Fisher Scientific), and equal amounts of protein were separated by electrophoresis and subsequently transferred to nitrocellulose membranes. Membranes were analyzed using the following antibodies from Cell Signaling Technology: phosphorylated NF-κB (Ser536) (93 H1, cat #3033,1:1000), phosphorylated IKB-α (Ser32) (14D4, cat #2859,1:1000), IKB-α (44D4, cat #4812, 1:1000), phosphorylated p38 (Thr180/Tyr182) (cat #9211, 1:1000), p38 (cat #9212, 1:1000). […] Bands were quantitated using ImageQuant (GE Healthcare). […]
For orientation: In western blotting, separated proteins are transferred to a membrane and probed.

Assay [2] in a line: Body weight of mice fed LFD or HFD with or without CDDO-EA in the chow for 6 weeks. In kind it is in vivo, C57B16/J mice. From the text:
To assess the protective effects of CDDO-EA from obesity and insulin resistance, C57B16/J mice (6-8 weeks old, male, strain #000664, The Jackson Laboratory) were used. The animals were fed a Low Fat diet (LFD) (10% total calories from fat, […]) or a High Fat diet (HFD) (60% of total calories from fat) incorporated with or without CDDO-EA (chow containing 0.04% CDDO-EA) for six weeks. Feeding groups: The mice were put into one of four groups: • (i) HFD (60% total calories from fat), • (ii) HFD+0.04% CDDO-EA, • (iii) LFD (10% total calories from fat), • (iv) LFD+0.04% CDDO-EA. Unlike Shin et al. and Camer et al., where the CDDO was administered via gavage or in the drinking water, the present studies provide for a feed material (veterinary chow mix) formulated to include 400 mg CDDO-EA in 1 kilogram of veterinary chow, which is 0.04% CDDO-EA in 1 kilogram of veterinary chow. […] This is because the amount of chow without CDDO-EA (LFD) consumed by the animals was approximately the same amount of chow with CDDO-EA consumed by the animals (LFD+CDDO-EA) (See Table 3). Data were statistically analyzed by One-Way ANOVA, Two-Way ANOVA with repeated measures, or Two-Way ANOVA with Tukey's multiple comparison test. Throughout the collection of blood samples, OGTTs, and measurement of bodyweight, mice were unrestrained and awake. Blood samples were collected via tail snip before start of experimental feeding and then every two weeks. Oral glucose tolerance tests (OGTTs) were performed after the six-week experimental feeding, and blood samples were collected via tail snip during the OGTT. For OGTT, mice were given 2 g of glucose/kg of body weight by gavage after a five hour fast (36). Glucose levels were measured using a glucometer (Contour), and insulin concentrations were measured using an ELISA (Mercodia). Mice were weighed once a week. Glucose and insulin serum levels were measured every two weeks.

The structures appear in SMILES notation. “Also recorded” adds a separate entry of the source.

Regarding `CCNC(=O)[C@]12CCC(C)(C)C[C@H]1C1C(=O)C=C3[C@@]4(C)C=C(C#N)C(=O)C(C)(C)[C@@H]4CC[C@@]3(C)[C@]1(C)CC2` (stereo partly drawn) [CDDO-EA, (4aS,6aR,6bS,8aR,12aS,14bS)-11-cyano-N-ethyl-2,2,6a,6b,9,9,12a-heptamethyl-10,14-dioxo-1,3,4,5,6,6a,6b, 7,8,8a,9,10,12a, 14,14a, 14b-hexadecahydropicene-4a (2H)-carboxamide], the “energy expenditure (EE)” value in assay [1] is given as “does not affect EE; also recorded: does not affect energy expenditure”. The “LPS-induced NF-κB phosphorylation” value in the assay on NF-κB p65 (Ser536) was “decreased LPS-induced NF-κB and nuclear factor of kappa light polypeptide gene enhancer in B-cells inhibitor-alpha (IκB) phosphorylation; also recorded: inhibited LPS-induced NF-κB phosphorylation; also recorded: inhibits lipopolysaccharide (LPS)-induced NF-κB and Inhibitory kappa B alpha (IκB-α) phosphorylation”. Further, the “difference in weight between mice fed a high fat diet and mice fed a high fat diet incorporated with CDDO-EA” value in assay [2] (0.04% CDDO-EA, 6 weeks) was determined as 66.8%. Also, the “Average Weight (g) of Mice” value in assay [2] (HFD + CDDO-EA (0.04%), week 1) came out at 23.4 ± 0.5 g; in assay [2] (HFD + CDDO-EA (0.04%), week 2), 23.2 ± 0.5 g; in assay [2] (HFD + CDDO-EA (0.04%), week 3), 24.6 ± 0.5 g; in assay [2] (HFD + CDDO-EA (0.04%), week 4) it was 24.1 ± 0.5 g; in assay [2] (HFD + CDDO-EA (0.04%), week 5), 25.4 ± 0.5 g; in assay [2] (HFD + CDDO-EA (0.04%), week 6) it was 25.3 ± 0.5 g. Further, the “Average Weight (g) of Mice” value was determined as 23.8 ± 0.5 g in assay [2] (HFD + CDDO-EA (diet containing 0.04% CDDO-EA), week 0); 24.4 ± 0.9 g in assay [2] (LFD + CDDO-EA (0.04%), week 1); 24.4 ± 0.8 g in assay [2] (LFD + CDDO-EA (0.04%), week 2); 25.8 ± 0.7 g in assay [2] (LFD + CDDO-EA (0.04%), week 3); 25.4 ± 0.7 g in assay [2] (LFD + CDDO-EA (0.04%), week 4); 26.4 ± 0.6 g in assay [2] (LFD + CDDO-EA (0.04%), week 5). Moreover, the “Average Weight (g) of Mice” value in assay [2] (LFD + CDDO-EA (0.04%), week 6) is given as 26.0 ± 0.4 g; in assay [2] (LFD + CDDO-EA (diet containing 0.04% CDDO-EA), week 0), 25.5 ± 1.0 g. Further, the “body weight gain / obesity” value in assay [2] (HFD + CDDO-EA (400 mg/kg diet, 0.04%), 6 weeks) is “did not have a significant increase in body weight; also recorded: significantly blocked gain weight; also recorded: prevented the excess weight gain; also recorded: inhibits weight gain and obesity in vivo; also recorded: did not evidence a significant weight gain; also recorded: prevents obesity”. Also, the “significant weight gain prevented” value in assay [2] (HFD incorporated with 0.04% CDDO-EA) came out at 66.8%.
